Measurements: PMC7999318 (International Journal of Molecular Sciences, 2021)

Legend:
ELuc-HepG2 cells [1] = test system: ELuc-HepG2 cells
CYPs-ELuc-HepG2 cells [2] = test system: CYPs-ELuc-HepG2 cells
ELuc-HepG2 cells [3] = test system: ELuc-HepG2 cells; remark: listed apart in the source
CYPs-ELuc-HepG2 cells [4] = test system: CYPs-ELuc-HepG2 cells; remark: listed apart in the source
CYPs-ELuc-HepG2 cells [5] = test system: CYPs-ELuc-HepG2 cells; remark: listed apart in the source
ELuc-HepG2 cells [6] = test system: ELuc-HepG2 cells; remark: listed apart in the source
CYPs-HepG2 cells = conditions: cited from earlier work
wild-type HepG2 cells = conditions: cited from earlier work

| Compound | bioluminescence intensity (ELuc-HepG2 cells [1]) | bioluminescence intensity (CYPs-ELuc-HepG2 cells [2]) | bioluminescence intensity in real time (CYPs-ELuc-HepG2 cells [5]) | bioluminescence intensity in real time (ELuc-HepG2 cells [6]) | cytotoxicity (CYPs-HepG2 cells) | cytotoxicity (wild-type HepG2 cells) | other results |
| --- | --- | --- | --- | --- | --- | --- | --- |
| Nn1nnc2ccccc21 [ABT, 1-aminobenzotriazole] | not affected | not affected |  |  |  |  |  |
| OC[C@@H](O)[C@@H](O)[C@H](O)[C@H](O)CO [D-mannitol] | no remarkable changes | no remarkable changes |  |  |  |  | viability by WST-1 assay (ELuc-HepG2 cells [3]): no remarkable changes; bioluminescence intensities during long-term culture (CYPs-ELuc-HepG2 cells [2]): no significant changes; viability by WST-1 assay (CYPs-ELuc-HepG2 cells [4]): no remarkable changes |
| CCCCCCCCCCCCOS(=O)(=O)[O-].[Na+] [SDS, sodium dodecyl sulfate] |  |  |  |  |  |  | concentration-response curves compared with ELuc-HepG2 cells (bioluminescence) (CYPs-ELuc-HepG2 cells [2]; 3 days): very similar concentration-response curves |
| COc1cc(NC(C)CCCN)c2ncccc2c1 (centres unmarked) [primaquine] |  |  | much faster decrease | Time- and concentration-dependent decreases |  |  | decrease of bioluminescence intensity under CYP2D6 inhibitor (CYPs-ELuc-HepG2 cells [5]): partially abolished; time at which the first IC50 value was noted (CYPs-ELuc-HepG2 cells [5]): 12 h; time at which the first IC50 value was noted (ELuc-HepG2 cells [6]): 22 h |
| COc1cc2c(c3oc4cccc(O)c4c(=O)c13)[C@@H]1C=CO[C@@H]1O2 [sterigmatocystin] |  |  |  |  | showed cytotoxicity | not |  |
| aflatoxin B1 | did not decrease | concentration-dependent decrease | time- and concentration-dependent decreases | no decrease | showed cytotoxicity | not | decrease of bioluminescence intensity under CYP3A4 inhibitor (CYPs-ELuc-HepG2 cells [5]): partially diminished; IC50 (CYPs-ELuc-HepG2 cells [5]; read-out: first IC50 value): 7.9 µM; first IC50 value (ELuc-HepG2 cells [6]): not observed; IC50 values during long-term culture (CYPs-ELuc-HepG2 cells [2]): almost unchanged; aflatoxin B1 concentration-dependent decrease of bioluminescence intensity under CYP inhibitor (CYPs-ELuc-HepG2 cells [2]): completely diminished |
